The source of these data is patent US20070265341A1, “COMPOSITIONS AND METHODS FOR TREATING EYE DISORDERS AND CONDITIONS” (The Schepens Eye Research Institute Inc., priority 2004, published 2007).

Experiment [1] concerns Balb/c mice. Briefly: Corneal fluorescein staining (NEI grading), dry eye model (CEC + scopolamine patch). It counts as in vivo, mouse. The following applies: scopolamine alone, Day 3 and Day 6. From the text:
(§1) Normal healthy 6 to 10 weeks old female Balb/c mice (Taconic Farms, German-town, NY) can be induced to have dry eye by continuously exposing them to dry environment in a controlled environmental chamber (CEC), described below. Mice in CEC were continuously exposed throughout the duration of the experiments, to low relative humidity of less than 30% (mean and standard deviation 19%±4%), high airflow (15 liters/minute) and constant temperature (21-23 Celsius). Mice in normal cages were exposed to relative humidity over 70% (mean and SD 78%±5%), no airflow and same temperature. In addition, the mice placed in CEC were also treated with scopolamine, active agent that causes pharmacological inhibition of tear secretion. […]
The cornea was examined with a slit lamp biomicroscope using cobalt blue light 3 minutes after the fluorescein instillation. Punctuate staining was recorded in a masked fashion using a standardized National Eye Institute (NEI) grading system of 0-3 for each of the five areas in which the corneal surface has been divided (FIG. 2). […]
(§2) Dry eye was induced by combined environmental and pharmacological effect (placing the mice in CEC and applying scopolamine patch for 6 days). […] Signs of dry eye were assessed at the end of Day 6, twelve hours after the last dose. […] […]

Experiment [2] deals with Balb/c mice. Briefly: Cotton thread test of tear production, dry eye model (CEC + scopolamine patch). It counts as in vivo, mouse. The following applies: Scop patch alone for 6 days, Day 3 and Day 6.
From the text: as §1, with “secretion. The combination of CEC and scopolamine produces severe dry eye.” for “secretion.”
Tear production was measured with cotton thread test, impregnated with phenol red (Zone-Quick, Lacrimedics, Eastsound, Wash.). […] The tear distance in mm is read under a microscope (Zeiss S4, West Germany) using the scale of an hemacytometer. Tear secretion was measured in three groups of mice (FIG. 1). […]
as §2

The test system of experiment [3] is C57BL/6 mice. Briefly: Corneal fluorescein staining (NEI grading), dry eye model (CEC + SQ scopolamine). It counts as in vivo, mouse. On the procedure: Six to 10 week old C57BL/6 mice (Taconic Farms, German-town, NY) were used. The protocol was approved by the Schepens Eye Research Institute Animal Care and Use Committee, and all animals were treated according to the ARVO Statement for the Use of Animals in Ophthalmic and Vision Research. […] The controlled-environment chamber: a new mouse model of dry eye. […] Louis, Mo.) was injected SQ in the dorsal skin of mice at 9 am, 12 pm, and 3 pm; the overnight dose at 6 pm was increased to 0.75 mg/0.3 ml. The mice were placed in the CEC where they were continuously exposed to a relative humidity (RH) of <30%, airflow of 15 litres/minute and a constant temperature of 21-23° C. as described previously (Barabino et al, 2005). Dry eye was induced for variable lengths of time, ranging from 2-10 days. […] Formulations tested included a) 0.2% alpha-linolenic acid (ALA, n-3); b) 0.2% linoleic acid (LA, n-6); and c) 0.1% ALA: 0.1% LA (1:1 ratio of n3:n6, total amount of fatty acid being same as in individual fatty acid formulations). […] Forty eight hours after dry eye induction, each eye was randomized to receive one of the formulations, or the vehicle. A 1 ul eye drop was applied topically to the eye of unanaesthetized mouse once daily, from 48 hours to day 4 (total 3 doses) or to day 9 (total 8 doses) depending on the time point studied. The untreated group received no eye drops. Ocular signs of dry eye were measured 24 hours after the last dose (day 5 or day 10) following which mice were euthanized for cellular and molecular studies. […] Eyes were flushed by sterile PBS to remove excess fluorescein at 3 minutes, and examined with a slit lamp biomicroscope in cobalt blue light. Punctate staining was recorded in a masked fashion with a standardized (National Eye Institute) grading system of 0 to 3 for each of the five areas in which the corneal surface was divided. […] Kruskal Wallis and Mann Whitney tests (unpaired data set), and Wilcoxin test (paired data set) were used for statistical analysis.

Experiment [4] deals with TNF-α. Put plainly: Real time PCR of cytokine transcripts in dry eye cornea and conjunctiva. It counts as in vivo, mouse. The text has this:
(§3) Corneal and conjunctival expression of pro-inflammatory cytokines IL-1α and TNF-α Th1 cytokines (IL-2 and IFN-γ) and Th2 cytokines (IL-4, IL-6 and IL-10), relative to the normal eyes, was studied using quantitative real time PCR. Total RNA was isolated from the whole mount corneal and conjunctival tissues (two pooled corneas per group and six pooled conjunctivae per group). A combined method of total RNA isolation was employed, using Trizol (Invitrogen, CA, catalog #15596-026) for tissue homogenization on ice, precipitation of RNA in the aqueous phase in 70% ethanol followed by subsequent extraction and purification using RNeasy Microkit (Qiagen, CA, catalogue # 74004). Isolated RNA was stored at −80° C. until future use.
(§4) The first strand cDNA was synthesized from 300 ng of total RNA with random hexamers using SuperScript™ III Reverse Transcriptase (Invitrogen, CA, Catalogue #18080) according to the manufacturer's protocol. Real-time PCR was performed with FAM-MGB dye labeled pre-designed primers (Applied Biosystems, CA) for IL-1-α (catalogue # 4329586), TNF-α (Assay ID Mm99999068_ml) and GAPDH (Assay ID Mm99999915_g1), IL-2 (Assay ID […]), IL-4 (Assay ID Mm00445259), IL-6 (Assay ID Mm00446190_ml), IL-10 (Mm00439616_ml), IFN-γ (Assay ID Mm00801778 ml) according to manufacturer's recommendations. 1 ul of cDNA was loaded in each well and assays were performed in duplicates. A nontemplate control was included in all the experiments to evaluate DNA contamination of the isolated RNA and the reagents used. The results of quantitative real-time PCR were analyzed by the comparative threshold cycle (CT) method and normalized by GAPDH as an internal control. The relative expression of cytokines at different times points was compared using one way ANOVA, post hoc test LSD with p<0.05 deemed significant.
(§5) Six to 10 week old C57BL/6 mice (Taconic Farms, German-town, NY) were used. The protocol was approved by the Schepens Eye Research Institute Animal Care and Use Committee, and all animals were treated according to the ARVO Statement for the Use of Animals in Ophthalmic and Vision Research. Dry eye was induced by placement of mice in a CEC as described above, modified with subcutaneous (“SQ”) administration of scopolamine to lead to maximal ocular dryness (Barabino S, Shen L, Chen L, Rashid S, Rolandao M, Dana M R. The controlled-environment chamber: a new mouse model of dry eye. Invest Opthalmol Vis Sci. 2005; 46: 2766-71). Briefly, 0.5 mg/0.2 ml of scopolamine hydrobromide (Sigma-Aldrich, St. Louis, Mo.) was injected SQ in the dorsal skin of mice at 9 am, 12 pm, and 3 pm; the overnight dose at 6 pm was increased to 0.75 mg/0.3 ml. The mice were placed in the CEC where they were continuously exposed to a relative humidity (RH) of <30%, airflow of 15 litres/minute and a constant temperature of 21-23° C. as described previously (Barabino et al, 2005). Dry eye was induced for variable lengths of time, ranging from 2-10 days. Age-matched mice were used as normal controls (RH>80%, no airflow and temperature 21-23° C., no scopolamine administration).
(§6) Forty eight hours after dry eye induction, each eye was randomized to receive one of the formulations, or the vehicle. A 1 ul eye drop was applied topically to the eye of unanaesthetized mouse once daily, from 48 hours to day 4 (total 3 doses) or to day 9 (total 8 doses) depending on the time point studied. The untreated group received no eye drops. Ocular signs of dry eye were measured 24 hours after the last dose (day 5 or day 10) following which mice were euthanized for cellular and molecular studies.
On the technique in general: Quantitative PCR measures a nucleic acid by following its amplification.

Experiment [5] deals with IL-1α. Described as above. It counts as in vivo, mouse.
From the text: as §3, §4, §5, §6

For experiment [6], the system named is CD11b+ cells.

SMILES strings stand for the structures. Where two headings read alike, the source gives them in different places.

`CN1[C@@H]2C[C@@H](OC(=O)[C@H](CO)c3ccccc3)C[C@H]1[C@@H]1O[C@@H]12` [Scop patch, scopolamine]: the “corneal fluorescein staining compared to the controls” value in experiment [1] is “significant increase”. In addition, the “tear secretion compared to the baseline” value in experiment [2] is “markedly decreased”.

In the case of `CCC=CCC=CCC=CCCCCCCCC(=O)O` [ALA, 9, 12, 15 octadecatrienoic acid], the “decrease in corneal fluorescein staining scores compared to the vehicle” value in experiment [3] (day 5, once daily drop from 48 hours) is 45%. For the same molecule, in experiment [3] (day 10), the “decrease in corneal fluorescein staining scores compared to the vehicle” value stood at 62% and the “decrease in corneal fluorescein staining scores compared to untreated control eyes” value worked out at 71%. For the same molecule, the “conjunctival expression of TNF-α compared to untreated eyes” value in experiment [4] (conjunctiva, day 10) is given as “significantly decreased”. For the same molecule, in experiment [4] (cornea, day 5), the “corneal TNF-α expression compared to untreated and vehicle-treated corneas” value was “significant decrease”. For the same molecule, in experiment [4] (cornea, day 10), the “corneal TNF-α expression” value was “decreased trend”. In experiment [5] (conjunctiva, day 10), the “conjunctival IL-α expression” value is “downward trend”. For the same molecule, in experiment [5] (cornea, day 10), the “corneal IL-1α expression compared to untreated corneas” value is given as “significant decrease”. For the same molecule, in experiment [6] (center of cornea, day 10), the “decrease in CD11b+ cell number compared to the untreated group” value is on record as 42%; the “decrease in CD11b+ cell number compared to the vehicle” value was 37%; the “number of CD11b+ cells compared to untreated, vehicle, LA and combined groups” value was “significantly decreased”. In addition, in experiment [6] (center of whole mount cornea, confocal images), the “number of CD11b+ cells relative to normal (non dry eye induced) cornea” value is given as “comparable to the normal”. Further, in experiment [6] (periphery of cornea, day 10), the “CD11b+ cell number compared to untreated eyes” value was “significant decrease”, the “CD11b+ cell number compared to vehicle” value is “no significant difference”, the “decrease in CD11b+ cell number compared to the untreated group” value came out at 37% and the “decrease in CD11b+ cell number compared to the vehicle” value is on record as 21%.

Take `CCCCC/C=C\C/C=C\CCCCCCCC(=O)O` [LA, 9,12-octadecandienoic acid]: in experiment [3] (day 5), the “corneal fluorescein staining scores compared to vehicle-treated eyes” value is “no significant difference”. For the same molecule, the “corneal fluorescein staining scores compared to vehicle and untreated eyes” value in experiment [3] (day 10) was “no difference”. For the same molecule, the “TNF-α expression, between untreated, vehicle and treated eyes” value in experiment [4] (cornea and conjunctiva) was “No significant difference”. The “IL-1α expression, between untreated, vehicle and treated eyes” value in experiment [5] (cornea and conjunctiva) was “No significant difference”.
